Measurements published in patent US20040053989A1, “Dithiolthione compounds for the treatment of neurological disorders and for memory enhancement” (Patrick Prendergast, priority 1999, published 2004).
“Also recorded” adds a separate entry of the source. Like-named read-outs stand apart in the source and are kept apart here.

Tests used:
[1] = H2O2-dependent oxidation of 3,3′-diaminobenzidine (DAB) by lesions in AD brain tissue sections after chelator treatment; set-up: species or system human; settings: prior treatment of AD brain tissue sections
Excerpt: AD is associated with abnormalities of iron metabolism including increased levels of free iron as well as altered levels of iron transport and storage proteins. […] In addition to the NFT and Aβ deposits, redox active metals can be identified in the cytoplasm by the same DAB reaction. […] Although in situ histochemical techniques lack the sensitivity to detect copper, copper (as well as iron) could contribute to the redox activity. The relative effectiveness of copper- and iron-selective chelating agents was used to remove the lesion-dependent redox activity, which provided evidence for both copper- and iron-mediated redox activity in AD. […] Also, DAB oxidation was inhibited by chelation of metals with […]

[2] = sections treated 2 hrs or overnight
[3] = tested on: Primary cortical neuron cultures; settings: Oltipraz 20 μM, Aβ1-42 25 μM, 5 days, MTT; p<0.05, ANOVA
Protocol: Primary cortical neuron cultures were established from E14 mice. […] Cultures were incubated for 5 days (37° C.) and then cell viability was determined using the MTT reduction assay. Cultures were also monitored for morphological changes by phase contrast microscopy. The MTT assay was performed by adding water soluble MTT to the culture medium at 0.5 mg/mL and incubating for 30 min. […] The culture medium was removed and the MTT solubilized in DMSO. Aliquots of solubilized MTT were read on a spectrophotometric plate reader at 570 nm.

[4] = tested on: T.b.rhodesiense STIB900; experiment: In vitro anti-protozoal activity, T.b.rhodesiense STIB900; assay type: cell-based
[5] = tested on: neurons and clonal cell lines; experiment: Attenuation of amyloid-β toxicity; assay type: cell-based; settings: for attenuation of amyloid-β toxicity, dose dependence: pre-incubated with amyloid-β
Excerpt: In vitro, amyloid-β is toxic to neurons and clonal cell lines.

[6] = tested on: L. donovani; experiment: In vitro anti-protozoal activity, L. donovani; assay type: cell-based
[7] = tested on: P. falciparum 3D7
Protocol: For in-vitro antimalarial testings, micro-titer plates were used. The concentration of drugs was prepared as pMol/well according to WHO standard procedures (WHO, 1990). The test compound was dissolved in 15% DMSO in sterile RPMI 1640.
The micro-titer plates were predosed with various concentration of the test compound. 50 μL of parasitised erythrocyte suspension in RPMI-1640 (0.2 ml erythrocyte +0.3 ml serum +4-5 ml RPMI-1640) were dispensed in microtiter wells containing various concentrations of drug. Triplicate readings were made for each concentration.
The testing was carried out according to the procedure of Desjardins et al. 1979. After 30 hr culture at 37 degrees C., the same microtiter plates from schizont inhibition assays with another triplicate wells were pulsed with ^3H-hypoxanthine for overnight. The cell suspensions were washed twice on millipore glass fiber filter with Millipore filter apparatus. The filter discs were counted for DPM by Beckman LS6000-scintillation counter. The activity of the drug was measured by plotting DPM against concentration of drug.

[8] = tested on: T. cruzi; experiment: In vitro anti-protozoal activity, T. cruzi; assay type: cell-based
[9] = doses of oltipraz effective at chelating in situ or abolishing amyloid-β toxicity; preliminary data
[10] = tested on: Primary fibroblast cultures; experiment: H2O2 toxicity in primary fibroblast cultures, murine model for oxidative stress (MTT); assay type: cell-based, mice; settings: H2O2 150 μM, Oltipraz 25 μM
Protocol: (§1) Primary fibroblast cultures were prepared from normal mice (non Tg), mice transfected to produce human wild type presenilin 1 (WT Tg) or mice transfected to produce mutant human presenilin 1 (Mut Tg). All mice are derived from an identical genetic background. […] 50U/mL of catalase was used as a benchmark antioxidant against H2O2 toxicity. Cell viability was determined with the MTT reduction assay. […] Cell viability was determined with the MTT assay.

[11] = tested on: Mut Tg fibroblasts; settings: Oltipraz 10, 25 and 50 μM; fibroblasts treated with toxic levels of BSO
Protocol: as §1

## O=C(O)CN(CCN(CC(=O)O)CC(=O)O)CCN(CC(=O)O)CC(=O)O [DTPA, detapac]
[1]; 1 mM chelator
  inhibition of lesion-associated DAB oxidation: inhibited more than half
[1]; 10 mM chelator
  inhibition of lesion-associated DAB oxidation: completely abolished; also recorded: nearly all
[1]; 100 mM chelator
  inhibition of lesion-associated DAB oxidation: abolished all

## Cc1c(-c2cnccn2)ssc1=S [Oltipraz, oltipraz]
[2]
  iron removal compared with DFX: not as effective as DFX
[3]
  cell viability compared to Aβ1-42 alone: small increase in cell viability
[4]; concentration 10
  % Inhibition: 0%
[4]; concentration 30
  % Inhibition: 42.5%
[5]
  attenuation of the neurotoxicity of amyloid-β: significantly attenuate
  attenuation of amyloid-β toxicity, dose dependence: reduced in a dose-dependent manner similar to that of deferoxamine
[5]; listed as oltipraz
  attenuation of amyloid-β toxicity, dose dependence: attenuate its toxicity in a dose-dependent manner similar to that of deferoxamine
[5]; shown in a figure
  cell survival in brain tissue sections: increase cell survival
[6]; concentration 10
  % Inhibition: 0%
[6]; concentration 30
  % Inhibition: 3.2%
[7]; concentration 1
  % Inhibition: 0%
[7]; concentration 3
  % Inhibition: 4.4%
[7]; concentration 10
  % Inhibition: 96.5%
[7]; concentration 30
  % Inhibition: 100%
[8]; concentration 1
  % Inhibition: 4.3%
[8]; concentration 3
  % Inhibition: 38.6%
[8]; concentration 10
  % Inhibition: 54.6%
[8]; concentration 30
  % Inhibition: 99.7%
[8]; line below the ED50
  ED50 column, second value in parentheses (not explained): (23.8) μg/ml
[9]
  neurotoxicity in vitro: little/no neurotoxicity
[10]
  protective effect relative to that achieved with 50U/mL catalase: about two thirds
[10]; fibroblasts from Mut Tg mice (mutant human presenilin 1)
  protective effect against H2O2 toxicity: not in fibroblasts from Mut Tg mice
[10]; fibroblasts from WT Tg mice (human wild type presenilin 1)
  protective effect against H2O2 toxicity: significant protective effect
[10]; fibroblasts from non Tg mice
  protective effect against H2O2 toxicity: significant protective effect
[11]
  cell viability restored: 100%
